Experimental data taken from publication PMC9000318, “Identification and Validation of a New Peptide Targeting Pancreatic Beta Cells” (Molecules, 2022).
Ends that are not written are not given here. * marks the point of attachment. FITC = O=C1OC2(c3ccc(O)cc3Oc3cc(O)ccc32)c2ccc(NC(=S)*)cc21

What was measured:
primary islet cells = test system: primary islet cells
Excerpt: Mice insulinoma cell line MIN6 were obtained from the Academy of Sciences Cell Bank of Shanghai and routinely cultured in RPMI-1640 medium (Gibco, Shanghai, China), supplemented with 10% (v/v) fetal bovine serum (FBS) and 1% (v/v) penicillin-streptomycin. The murine pancreatic cancer cell line KPC and the hepatocellular carcinoma cell line (HCC-LM3) were kindly provided by Tingbo Liang’s Research Group (Zhejiang University, Hangzhou, China). KPC cells were maintained in RPMI-1640 medium (Gibco, Shanghai, China), supplemented with 20% FBS, 1% sodium pyruvate (100×), and 1% MEM Non-Essential Amino Acids (NEAA 100×). HCC-LM3 cells were maintained in Dulbecco’s modified Eagle’s medium (DMEM; Gibco, Shanghai, China) with 10% FBS and 1% (v/v) penicillin-streptomycin. The primary islets were isolated by collagenase digestion from ICR (Institute of Cancer Research) mice and separated by density gradient centrifugation as previously described. The islets were incubated at 37 °C in 2 mL RPMI-1640 medium at a density of 100–150 islets per well in 6-well plates and maintained at 37 °C with 5% CO2.
To investigate the effect of LNTPLKS on the viability of the islet cells, different concentrations of LNTPLKS (0, 0.5, 1, 10 μM) were separately co-incubated with islet cells in 96-well plates (triplicate wells for each concentration of peptide). Twenty-four hours later, MTT was added and incubated for 4 h. DMSO was added after centrifugation and the color development was read at an OD of 570 nm. Islet cells were incubated with different concentrations of peptides for 24 h at 37 °C. The supernatant was discarded, cells were rinsed twice with PBS, KRB buffer containing 3.3 mM glucose was added, and the cells were incubated for 30 min at 37 °C. The supernatant was discarded and cells were incubated with KRB buffer containing low glucose (3.3 mM) or high glucose (16.7 mM) for 1 h.

islet cells [1] = assay: FACS binding to islet cells; type: cell-based, ICR mouse; conditions: flow cytometry, FITC-labeled peptide, 2 h incubation, islets digested to single cells
Experimental: (§1) Purified FITC-labeled candidate peptides were used for the peptide-based immunofluorescence assay to confirm the selective binding of the selected peptides to the used cells. FITC-labeled peptide-based immunofluorescence assay was performed, and FITC-labeled peptide (1 μM) was added to each well and then incubated for 2 h at room temperature. The wells were washed with PBS three times and directly mounted with vectashield mounting medium after DAPI staining. The cells were visualized under fluorescence microscope. In addition, to determine the binding location of the peptide, MIN6 cells were labeled with LNTPLKS-FITC and further observed under confocal microscope. For fluorescence activated cell sorting, purified islets and KPC cells were incubated in 6 well plates; 24 h later, FITC-labeled peptide was added with a final concentration of 1 μM. After 2 h of incubation, cells were washed with PBS three times and harvested for FACS to quantitatively analyze the binding affinity of the peptide to the different cell types (islets was digested to single cells before FACS analyzing).

KPC cells = assay: FACS binding to KPC cells; type: cell-based, murine; conditions: flow cytometry, FITC-labeled peptide, 2 h incubation
Experimental: as §1

[2] = test system: islets in pancreas cryosections; assay: Binding to in situ islets, mouse pancreas cryosections; parameters: species or system ICR mice; conditions: 2 h incubation, anti-insulin counterstain, fluorescence microscope
Experimental: (§2) In order to evaluate whether the LNTPLKS-FITC peptide could directly bind islets within the pancreas, the pancreas of ICR mice was collected and frozen sections were prepared. The cryosections were incubated with anti-insulin solution and LNTPLKS-FITC 2 h after treatment with BSA, followed by observation under fluorescence microscope. To determine whether LNTPLKS could bind to human islet, staining of paraffin-embedded human tissue sections were performed. Briefly, slices were deparaffinized and subsequently permeabilized by heating in antigen-unmasking solutions. After blocking with 2% BSA, slices were incubated with anti-insulin antibody at 4 °C overnight. Cy3-conjugated goat anti-mouse IgG (1:300 dilutions) antibody was incubated for 50 min at 24 °C. Then, the slices were incubated with DAPI and LNTPLKS-FITC or control peptide for 1 h at room temperature. Tissue slides were analyzed using a fluorescence microscope. To further confirm the specificity of peptide to islet, we transplanted islets under renal capsule of the ICR mice. Kidney slices containing islets grafts were prepared and incubated with LNTPLKS-FITC peptide. After 2 h of incubation, the slices were observed under fluorescence microscope.

islets grafts = assay: Binding to islet grafts under the renal capsule, kidney slices; conditions: islets transplanted under renal capsule of ICR mice, slices incubated 2 h
Experimental: as §2

MIN6 cells [3] = assay: FITC-labeled peptide-based immunofluorescence assay (ICC) on MIN6 cells; parameters: species or system mice; conditions: FITC-labeled peptide 1 μM, 2 h, room temperature; fluorescence microscope; KPC cells as cell control
Experimental: as §1

MIN6 cells [4] = assay: Confocal microscopy, localization of the peptide in MIN6 cells; type: cell-based, mice; conditions: DAPI counterstain
Experimental: as §1

islet cells [5] = assay: FITC-labeled peptide-based immunofluorescence assay on purified islets; type: cell-based, ICR mouse; conditions: fluorescence microscope
Experimental: as §1

human islets = assay: Binding to human islets, paraffin-embedded pancreatic tissue sections; conditions: paraffin sections from a donor, co-stained with anti-insulin antibody, 1 h room temperature
Experimental: as §2

pancreatic islet = assay: In vivo targeting of pancreatic islets after tail vein injection; parameters: species or system mice; conditions: pancreas sliced, data not shown
Excerpt: The final goal of developing a beta cell-specific molecular probe is to provide a non-invasive, in vivo imaging method for measuring BCM during diabetes progression and tracking islet grafts after islet transplantation, so that necessary and timely intervention can be performed. Therefore, all presumed beta cell-specific probes screened in vitro have to be validated by in vivo studies. As the first step, we tested islet specificity using pancreatic slices and islet graft-containing slices. […] However, when it comes to in vivo studies, the results were obscure. We injected FITC-conjugated LNTPLKS peptide into the mice via tail vein and the pancreas was then sliced to detect the targeting of the peptide in the pancreatic islet. The fluorescence within pancreas was rather weak (data not shown). The unsatisfied result might be attributed to the degradation of the peptide in the body. Increasing peptide stability and its circulation time will facilitate cellular uptake. In the following study, the peptide LNTPLKS will be further processed by chemical modification (such as PEGylation) to protect the peptide from degradation in vivo without changing the targeting ability of the peptide, or by conjugating it with other imaging materials (iron oxide nanoparticle, radionuclide, etc.) to be monitored by MR, SPECT, or other imaging modalities with high sensitivity.

MIN6 tumor = conditions: mouse, in vivo, 5 mg/kg
Excerpt: (§3) In total, 2 × 10^6 MIN6 cells and HCC-LM3 cells were subcutaneously inoculated in male nude mice for 4 weeks separately. After 16 days, the tumor grew to approximately 1.0 cm^3. […] The tumor, spleen, kidney and liver were harvested and their fluorescence intensity was quantified by in vivo imaging system (IVIS).

LM3 tumor = conditions: mouse, in vivo, 5 mg/kg
Excerpt: as §3

Substance | viability of the islet cells (primary islet cells; MTT, 24 h co-incubation, peptide concentration between 500 and 1 μM, triplicate wells) | glucose-stimulated insulin secretion (GSIS) (primary islet cells; peptide 24 h at 37 °C, between 500 and 1 μM, KRB buffer high glucose 16.7 mM, 1 h, insulin ELISA, three tests) | basical insulin secretion (BIS) (primary islet cells; peptide 24 h at 37 °C, between 500 and 1 μM, KRB buffer low glucose 3.3 mM, 1 h, insulin ELISA, three tests) | mean fluorescence peak point, islet group (islet cells [1]) | mean fluorescence peak point, KPC cell group (KPC cells) | fluorescence of islets in mouse pancreas cryosections [2] | fluorescence of islets grafts in kidney slices (islets grafts) | FITC signal in MIN6 cells (MIN6 cells [3]) | localization of the peptide on MIN6 cells (MIN6 cells [4]) | affinity for the islet cells (fluorescent images) (islet cells [5]) | binding to human islets in pancreatic tissue sections (human islets) | fluorescence within pancreas after injection (pancreatic islet) | fluorescence average counts, kidney (MIN6 tumor) | fluorescence average counts, liver (MIN6 tumor) | fluorescence average counts, spleen (MIN6 tumor) | fluorescence average counts, tumor (MIN6 tumor) | fluorescence average counts, kidney (LM3 tumor) | fluorescence average counts, liver (LM3 tumor) | fluorescence average counts, spleen (LM3 tumor) | fluorescence average counts, tumor (LM3 tumor)
LNTPLKS [seven-amino acid peptide targeting beta cell line MIN6, screened by phage display] | only slightly affected | only slightly affected | only slightly affected | shifted to the right side | no such shift | – | – | – | – | – | – | – | – | – | – | – | – | – | – | –
SPPTGIN-FITC [random peptide SPPTGIN conjugated with FITC at the N-terminus, negative control, reference compound] | – | – | – | – | – | no fluorescent signal was merged with the anti-insulin signal | no fluorescence was observed | – | – | – | – | – | – | – | – | – | – | – | – | –
{FITC}-LNTPLKS [LNTPLKS-FITC, LNTPLKS conjugated with fluorescein isothiocyanate (FITC) at the N-terminus] | – | – | – | – | – | fluorescent, whereas the surrounding exocrine tissues were not | fluorescent | significantly higher FITC signal | internalized to the cytoplasm | high affinity | identifiable within the islets and co-localized with insulin-producing cells | rather weak | 1.14 × 10^3 counts | 1.81 × 10^3 counts | 4.84 × 10^2 counts | 1.80 × 10^3 counts | 1.20 × 10^3 counts | 2.15 × 10^3 counts | 5.24 × 10^2 counts | 9.47 × 10^2 counts
